Assay results reported in patent publication US20260041093A1, “Ionic Derivatives Of Aromatic Carboxylic Acid For Use As Plant Stimulants, Method For Stimulating Plants And Use Of These Derivatives For Manufacturing Compositions For Stimulating Plants” (FUNDACJA UNIWERSYTETU IM. ADAMA MICKIEWICZA W POZNANIU, priority 2022, published 2026).
Read-outs that look alike come from different tables or passages of the source.

What was measured:
[1] = tested on: Pseudomonas syringae pv. Tomato (Pst); assay: Protection of tomato against Pseudomonas syringae pv. Tomato by spraying (Example 33); assay type: in vivo, Lycopersicon Esculentum Mill tomato; conditions: 80 mg/L, sprayed twice; 2 weeks after infection
Experimental: (§1) Tomato plants, at the stage of the first pair of developed true leaves, were watered twice with a solution of substance 1-6 at a concentration of 80 mg/L, at a weekly interval. The control was tomato plants watered only with water. One week after the second treatment, a suspension of Pst bacteria at a concentration of 10^5 was spot-injected into the leaves using an insulin syringe (without a needle). The suspension was prepared from a two-day culture of Pst on solid medium. Protection against biotic stress was evaluated by the proliferation of bacteria in the leaves at the insertion site and the formation of a necrotic spot, compared to the control.
The procedure was followed as in Example 32, with the plants sprayed.

[2] = tested on: Tobacco Mosaic Virus (TMV); assay: Protection of tobacco against TMV infection by watering twice (Example 24); assay type: in vivo, Nicotiana tabacum cv. Xanthi; conditions: watered twice, 7 days after infection
Experimental: Tobacco plants (Nicotiana tabacum) cv. […] 3,5-dichlorosalicylate of choline; 4. 3-chlorosalicylate of sodium, 5. 3-chlorosalicylate of potassium, 6. 3-chlorosalicylate of calcium, 7. 3-chlorosalicylate of magnesium at a concentration of 10 or 40 or 80 mg/L, at one-week intervals. The control was tobacco plants watered only with water. One week after the second treatment of the plants with the preparation, mechanical infection of the leaves with Tobacco Mosaic Virus (TMV) was carried out. This consisted of rubbing carborundum-sprinkled leaves several times with fingers soaked in a suspension of purified virus at a concentration of about 2 μg/ml. In order to evaluate the effectiveness of the tested substances in protection against biotic stresses, the TMV model and tobacco cv. Xanthi characterized by an interaction in the form of hypersensitivity phenomenon, i.e. the formation of easily quantifiable necrotic spots, were used.

[3] = tested on: powdery mildew fungus; assay: Protection of tomato against powdery mildew by spraying (Example 35); assay type: in vivo, Lycopersicon Esculentum Mill tomato; conditions: 40 mg/l, sprayed twice; 2 weeks after pathogen inoculation
Experimental: […] The control was tomato plants watered only with water. […] The suspension was prepared from culture on solid medium. Protection against biotic stress was evaluated by comparing the area of leaves affected by infection.
Proceeded in the way as described in Example 34, with the difference that plants were sprayed and not watered.

[4] = tested on: Pseudomonas syringae pv. Tomato (Pst); conditions: watered twice, Pst 10^5, 2 weeks after infection
Experimental: Tobacco plants at the stage of 3 developed leaves were watered twice, at a weekly interval, with a solution of test substances 1-11 at concentrations of 10, 40, 80 mg/L. The control was tobacco plants watered with water only. One week after the second treatment, a suspension of Pst bacteria at a concentration of 10^5 was spotted into the leaves using an insulin syringe (without a needle). The suspension was prepared from a two-day culture of Pst on solid medium. Protection against biotic stress was evaluated by the proliferation of bacteria in the leaves at the insertion site and the formation of a necrotic spot, compared to the control.
We proceeded as in Example 30, with the effectiveness of protection against biotic stress tested against bacterial cell concentrations raised to about 10^6.

[5] = tested on: Pseudomonas syringae pv. Tomato (Pst); assay: Protection of tomato against Pseudomonas syringae pv. Tomato by watering (Example 32); assay type: in vivo; conditions: 80 mg/L; watered twice; Pst 10^5; 2 weeks after infection
Experimental: as §1

[6] = tested on: powdery mildew fungus; assay type: in vivo, tomato; conditions: 80 mg/L, watered twice; 2 weeks after infection
Experimental: Tomato plants, at the stage of the first pair of developed true leaves, were watered twice with a solution of substance 1-32 at a concentration of 80 mg/L, at a weekly interval. The control was tomato plants watered only with water. […] The suspension was prepared from culture on solid medium. Protection against biotic stress was evaluated by comparing the area of leaves affected by infection.

[7] = tested on: tobacco mosaic virus (TMV); assay: Direct effect on TMV infectivity: virus incubated with substance, then Xanthi tobacco leaves infected (Example 21); assay type: in vivo; conditions: TMV about 3 μg/ml mixed 1:1 with substance 80 mg/L, 30 min; 5 days after infection; control 100
Experimental: Sodium 3-chlorosalicylate; 5. Potassium 3-chlorosalicylate; 6. Calcium 3-chlorosalicylate; 7. Magnesium 3-chlorosalicylate (concentration 80 mg/L), in a 1:1 ratio and incubated for 30 min at room temperature. The control variant consisted of TMV incubated in water. All virus suspensions were used to mechanically infect Xanthi tobacco leaves, whose reaction to infection is manifested in easily quantifiable local necrotic spots (hypersensitivity, local infection).
After 5 days, the area of leaf covered by necrotic spots compared to total leaf area was calculated for plants of all variants of treatment.

[8] = tested on: Brome Mosaic Virus (BMV); assay: Protection of barley against Brome Mosaic Virus infection by watering (Examples 28 and 29); assay type: in vivo; conditions: 80 mg/L, watered twice; 2 weeks after infection
[9] = tested on: powdery mildew fungus; assay: Direct effect on fungal infectivity (Example 23); assay type: in vivo; conditions: tobacco plant, 5 days after infection with solution of fungus and test substance; control 100
Experimental: Proceeding as in Example 21, the test was performed on the powdery mildew fungus, which was then incubated on the medium.

[10] = tested on: Tobacco Mosaic Virus (TMV); assay: Protection of tobacco against TMV infection by spraying twice (Example 25); assay type: in vivo, Nicotiana tabacum cv. Xanthi; conditions: sprayed twice, 7 days after infection
Excerpt: 5-chlorosalicylate of choline; 3. 3,5-dichlorosalicylate of choline; 4. 3-chlorosalicylate of sodium, 5. 3-chlorosalicylate of potassium, 6. 3-chlorosalicylate of calcium, 7.

[11] = tested on: Pseudomonas syringae pv. Tomato; assay: Direct effect on bacterial infectivity (Example 22); assay type: in vivo; conditions: tobacco plant, 5 days after infection with solution of bacteria and test substance; control 100
Experimental: Proceeding as in example 21, Pseudomonas syringae pv. Tomato bacteria were tested and incubated in bacterial medium.

Row | Molecule | % reduction in necrotic spots compared to control [1] [%] | % reduction in necrotic spots compared to control ([2]; 10 mg/L) [%] | % reduction in necrotic spots compared to control ([2]; 40 mg/L) [%] | % reduction in necrotic spots compared to control ([2]; 80 mg/L) [%] | Reduction in necrotic spots (white patches) compared to control [3] [%] | % reduction in necrotic spots compared to control ([4]; 10 mg/L) [%] | % reduction in necrotic spots compared to control ([4]; 40 mg/L) [%] | % reduction in necrotic spots compared to control ([4]; 80 mg/L) [%] | % reduction in necrotic spots compared to control [5] [%] | % reduction in necrotic spots compared to control [6] [%] | % of necrotic spots [7] [%] | % reduction in necrotic spots compared to control [8] [%] | % of necrotic spots [9] [%] | % reduction in necrotic spots compared to control ([10]; 10 mg/L) [%] | % reduction in necrotic spots compared to control ([10]; 40 mg/L) [%] | % reduction in necrotic spots compared to control ([10]; 80 mg/L) [%] | % of necrotic spots [11] [%]
1 | C[N+](C)(C)CCO.O=C([O-])c1cc(Cl)cc(Cl)c1O | 57 | 36 | 58 | 96 | 66 | 27 | 38 | 84 | 59 | 85 | 95 | 77 | 96 | 36 | 47 | 54 | 100
2 | C[N+](C)(C)CCO.O=C([O-])c1cc(Cl)ccc1O [choline 5-chlorosalicylate] | 88 | 34 | 62 | 98 | 68 | 28 | 36 | 80 | 87 | 90 | 100 | 36 | 98 | 39 | 61 | 74 | 98
3 | O=C([O-])c1cccc(Cl)c1O.[K+] [potassium 3-chlorosalicylate] | 84 | 32 | 65 | 98 | 54 |  |  |  | 87 | 84 | 95 |  | 98 | >10 | >10 | 15 | 98
4 | O=C([O-])c1cccc(Cl)c1O.[Na+] [sodium 3-chlorosalicylate] | 51 | 24 | 63 | 95 | 55 |  |  |  | 53 | 88 | 97 |  | 96 | 24 | 29 | 55 | 95
5 | calcium 3-chlorosalicylate | 82 | 33 | 65 | 97 | 62 |  |  |  | 86 | 69 | 100 |  | 97 | 20 | 30 | 36 | 97
